In ChEMBL document CHEMBL5154892, “Structure-Based Optimization and Characterization of Macrocyclic Zika Virus NS2B-NS3 Protease Inhibitors” (J Med Chem, 2022):
Activity calls are given as the source filed them. The rule behind the calls is not given here. *1 amine or outer side, *2 acyl side, *3 side chain or, on linkers, in order; H or OH if unused. Where a SMILES comes first, the peptide text is derived from it. [ ]: non-standard residue; d: D form. X2 = N=C(N)N[C@H](CCOCN[*:1])C(=O)[*:2]; X3 = O=C([C@@H](CN[*:1])Cc1ccccc1)[*:2]; X1 = O=C([C@H](CN[*:1])Cc1ccccc1)[*:2]; NMeβAla = CN(CCC(=O)[*:2])[*:1]; βAla = NCCC(=O)O; Sar = CNCC(=O)O

Key:
[1] = Binding affinity to West Nile virus NSB2 (52 to 96 amino acids)-NS3 (1 to 184 amino acids) protease using Phac-Leu-Lys-Lys-Arg-AMC as substrate measured immediately upto 10 mins by fluorogenic assay
[2] = Binding affinity to Zika virus NS2B-NS3 protease using Phac-Leu-Lys-Lys-Arg-AMC as substrate measured immediately upto 10 mins by fluorogenic assay
Trypsin (Sus scrofa) = Trypsin (Sus scrofa) (UniProt P00761); experiment: Inhibition of porcine trypsin at 100 uM using Mes-D-Arg-Gly-Arg-AMC a substrate by fluorescence plate reader analysis
Chain of Trypsin (Sus scrofa) (P00761 whole entry): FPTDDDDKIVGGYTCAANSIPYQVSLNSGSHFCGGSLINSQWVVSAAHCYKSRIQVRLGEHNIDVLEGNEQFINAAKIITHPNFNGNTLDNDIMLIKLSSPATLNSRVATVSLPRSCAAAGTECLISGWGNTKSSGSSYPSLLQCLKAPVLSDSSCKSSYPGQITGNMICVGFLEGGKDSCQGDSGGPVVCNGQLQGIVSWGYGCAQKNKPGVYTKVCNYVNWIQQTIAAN

Prothrombin (Bos taurus) = Prothrombin (Bos taurus) (UniProt P00735); experiment: Inhibition of bovine thrombin at 100 uM using Tos-Gly-Pro-Arg-AMC as substrate by fluorescence plate reader analysis
Zika virus [3] = experiment: Antiviral activity against ZIKV H/PF/2013 infected in human A549 cells assessed as reduction in extracellular virus titer in cell supernatant at 80 uM measured after 24 hrs post infection by plaque assay based crystal violet staining analysis; assay type: functional, organism-based
Zika virus [4] = experiment: Antiviral activity against ZIKV H/PF/2013 infected in human A549 cells assessed as reduction in intracellular virus titer at 80 uM measured after 48 hrs post infection by plaque assay based crystal violet staining analysis; assay type: functional, organism-based
Zika virus [5] = experiment: Antiviral activity against ZIKV H/PF/2013 infected in human A549 cells assessed as reduction in number of infected cells at 80 uM measured after 24 hrs post infection by immunofluorescence microscopic analysis relative to control; assay type: functional, organism-based
Zika virus [6] = experiment: Antiviral activity against Zika virus infected in human A549 cells assessed as reduction in luciferase activity at 20 uM measured up to 48 hrs post infection by luciferase assay; assay type: functional, organism-based
Zika virus [7] = experiment: Antiviral activity against ZIKV H/PF/2013 infected in human A549 cells assessed as reduction in extracellular virus titer in cell supernatant at 80 uM measured after 48 hrs post infection by plaque assay based crystal violet staining analysis; assay type: functional, organism-based
A549 [8] = experiment: Cytotoxicity against human A549 cells assessed as cell viability upto 80 uM and measured after 24 to 48 hrs by PrestoBlue dye based microplate reader analysis; assay type: toxicity; details: a549, 80 µM, time 24-48 hrs
A549 [9] = experiment: Cytotoxicity against human A549 cells assessed as cell viability at 2.5 to 160 uM measured after 24 to 48 hrs by PrestoBlue dye based microplate reader analysis; assay type: toxicity; details: a549, 160 µM, dose lower 2.5 µM, time lower 24 hrs, dose upper 160 µM, time upper 48 hrs

With `N=C(N)N[C@@H]1CCOCNC(=O)[C@H](CCCCN)NC(=O)[C@H](CCCCN)NC(=O)CCNC(=O)Cc2cccc(c2)CNC1=O` the Ki [1] was 56500 nM and the Ki [2] was 81.4 nM.

For `CC(C)C[C@@H]1NC(=O)CCNC(=O)CNC(=O)[C@H](NC(=N)N)CCOCNC(=O)[C@H](CCCCN)NC(=O)[C@H](CCCCN)NC1=O`, the Ki [1] was 10300 nM and the Ki [2] was 124 nM.

Molecule `C[C@@H]1NC(=O)CCNC(=O)CNC(=O)[C@H](NC(=N)N)CCOCNC(=O)[C@H](CCCCN)NC(=O)[C@H](CCCCN)NC1=O` has a Ki [1] of 7760 nM and a Ki [2] of 75 nM.

Molecule `C[C@H]1NC(=O)CCNC(=O)CNC(=O)[C@H](NC(=N)N)CCOCNC(=O)[C@H](CCCCN)NC(=O)[C@H](CCCCN)NC1=O` has a Ki [1] of 1430 nM and a Ki [2] of 5.62 nM.

`N=C(N)N[C@@H]1CCOCNC(=O)[C@H](CCCCN)NC(=O)[C@H](CCCCN)NC(=O)Cc2cccc(c2)CNC(=O)[C@@H](CC2CCCCC2)NC1=O` showed a Ki [1] of 395 nM, a Ki [2] of 3.59 nM and an inhibition (Trypsin (Sus scrofa)) of under 10%. For the same molecule, the inhibition (Prothrombin (Bos taurus)) was under 30%.

In the case of `N=C(N)N[C@@H]1CCOCNC(=O)[C@H](CCCCN)NC(=O)[C@H](CCCCN)NC(=O)[C@H](Cc2ccccc2)NC(=O)CNC(=O)CNC1=O`, the Ki [1] is reported as 657 nM and the Ki [2] is reported as 31.9 nM.

In the case of `CCCC[C@H]1NC(=O)CCNC(=O)CNC(=O)[C@H](NC(=N)N)CCOCNC(=O)[C@H](CCCCN)NC(=O)[C@H](CCCCN)NC1=O`, the Ki [1] is reported as 892 nM and the Ki [2] is reported as 4.94 nM.

In the case of `N=C(N)N[C@@H]1CCOCNC(=O)[C@H](CCCCN)NC(=O)[C@H](CCCCN)NC(=O)Cc2cccc(c2)CNC(=O)[C@@H](CCC2CCCCC2)NC1=O.O=C(O)C(F)(F)F`, the Ki [1] is reported as 219 nM, the Activity (Zika virus [3]) is reported as “Active” and the Activity (Zika virus [4]) is reported as “Active”. For the same molecule, the Ki [2] was 2.33 nM, the inhibition (Trypsin (Sus scrofa)) was under 10% and the Activity (Zika virus [5]) was “Active”. The Activity (Zika virus [6]) was “Active”, the Activity (Zika virus [7]) was “Active” and the Activity (A549 [8]) was “Non-Toxic”. It also gave an inhibition (Prothrombin (Bos taurus)) of under 30%.

For `N=C(N)N[C@@H]1CCOCNC(=O)[C@H](CCCCN)NC(=O)[C@H](CCCCN)NC(=O)[C@@H](CC2CCCCC2)NC(=O)CCNC(=O)CNC1=O`, the Ki [1] was 735 nM, the Ki [2] was 6.94 nM and the inhibition (Trypsin (Sus scrofa)) was under 10%. The inhibition (Prothrombin (Bos taurus)) was under 30%.

For `CC(C)[C@H]1NC(=O)CCNC(=O)CNC(=O)[C@H](NC(=N)N)CCOCNC(=O)[C@H](CCCCN)NC(=O)[C@H](CCCCN)NC1=O.O=C(O)C(F)(F)F`, the Ki [1] was 1680 nM, the Ki [2] was 8.26 nM and the Activity (A549 [8]) was “Non-Toxic”.

For `N=C(N)N[C@@H]1CCOCNC(=O)[C@H](CCCCN)NC(=O)[C@H](CCCCN)NC(=O)[C@@H](Cc2ccccc2)NC(=O)CNC(=O)CNC1=O` (racemic), the Ki [1] was 17300 nM and the Ki [2] was 139 nM.

`CN1CC(=O)NCC(=O)NCCC(=O)N[C@@H](CCCCN)C(=O)N[C@@H](CCCCN)C(=O)NCOCC[C@@H](NC(=N)N)C1=O` (cyclo(G[βAla]KK[X2][Sar])) gave a Ki [1] of 30500 nM and a Ki [2] of 332 nM.

Molecule `N=C(N)N[C@@H]1CCOCNC(=O)[C@H](CCCCN)NC(=O)[C@H](CCCCN)NC(=O)[C@@H](Cc2ccccc2)CNC(=O)CNC(=O)CNC1=O` (cyclo(GG[X1]KK[X2])) has a Ki [1] of 14800 nM, a Ki [2] of 63 nM and an inhibition (Trypsin (Sus scrofa)) of under 10%. For the same molecule, the inhibition (Prothrombin (Bos taurus)) was under 30%.

Work on `CC(C)[C@@H]1NC(=O)CCNC(=O)CNC(=O)[C@H](NC(=N)N)CCOCNC(=O)[C@H](CCCCN)NC(=O)[C@H](CCCCN)NC1=O` yielded a Ki [1] of 39700 nM and a Ki [2] of 340 nM.

With `CN1CCC(=O)N[C@@H](CCCCN)C(=O)N[C@@H](CCCCN)C(=O)NCOCC[C@@H](NC(=N)N)C(=O)NCC(=O)NCC1=O` (cyclo(GG[NMeβAla]KK[X2])) the Ki [1] was 36900 nM and the Ki [2] was 490 nM.

Molecule `CC(C)C[C@H]1NC(=O)[C@H](NC(=N)N)CCOCNC(=O)[C@H](CCCCN)NC(=O)[C@H](CCCCN)NC(=O)Cc2cccc(c2)CNC1=O` has a Ki [1] of 276 nM, a Ki [2] of 9.53 nM and an inhibition (Trypsin (Sus scrofa)) of under 10%. The inhibition (Prothrombin (Bos taurus)) was under 30%.

With `N=C(N)N[C@@H]1CCOCNC(=O)[C@H](CCCCN)NC(=O)[C@H](CCCCN)NC(=O)CCNC(=O)CNC(=O)CNC1=O` (cyclo(GG[βAla]KK[X2])) the inhibition (Trypsin (Sus scrofa)) was under 10%, the Activity (Zika virus [6]) was “Active” and the Activity (A549 [8]) was “Non-Toxic”. It also gave an inhibition (Prothrombin (Bos taurus)) of under 30%.

In the case of `N=C(N)N[C@@H]1CCOCNC(=O)[C@H](CCCCN)NC(=O)[C@H](CCCCN)NC(=O)[C@@H](Cc2ccccc2)NC(=O)CCNC(=O)CNC1=O.O=C(O)C(F)(F)F`, the Ki [1] is reported as 1920 nM, the Activity (A549 [9]) is reported as “Toxic” and the Ki [2] is reported as 3.06 nM. For the same molecule, the inhibition (Trypsin (Sus scrofa)) was under 10%, the Activity (Zika virus [6]) was “Active” and the inhibition (Prothrombin (Bos taurus)) was under 30%.

In the case of `N=C(N)N[C@@H]1CCOCNC(=O)[C@H](CCCCN)NC(=O)[C@H](CCCCN)NC(=O)Cc2cccc(c2)CNC(=O)CNC1=O`, the Activity (Zika virus [3]) is reported as “Active”, the inhibition (Trypsin (Sus scrofa)) is reported as under 10% and the Activity (Zika virus [6]) is reported as “Active”. The Activity (A549 [8]) was “Non-Toxic” and the inhibition (Prothrombin (Bos taurus)) was under 30%.

For `CC(C)C[C@H]1NC(=O)CCNC(=O)CNC(=O)[C@H](NC(=N)N)CCOCNC(=O)[C@H](CCCCN)NC(=O)[C@H](CCCCN)NC1=O`, the Ki [1] was 1030 nM and the Ki [2] was 4.3 nM.

For `C[C@@H]1NC(=O)CNC(=O)CNC(=O)[C@H](NC(=N)N)CCOCNC(=O)[C@H](CCCCN)NC(=O)[C@H](CCCCN)NC1=O`, the Ki [1] was 1170 nM and the Ki [2] was 92.2 nM.

Molecule `N=C(N)N[C@@H]1CCOCNC(=O)[C@H](CCCCN)NC(=O)[C@H](CCCCN)NC(=O)Cc2cccc(c2)CNC(=O)[C@@H](Cc2ccccc2)NC1=O` has a Ki [1] of 693 nM and a Ki [2] of 5.34 nM.

With `N=C(N)N[C@@H]1CCOCNC(=O)[C@H](CCCCN)NC(=O)[C@H](CCCCN)NC(=O)Cc2cccc(c2)CNC(=O)[C@@H](CCc2ccccc2)NC1=O` the Ki [1] was 331 nM and the Ki [2] was 6.02 nM.

Work on `CC(C)[C@H]1NC(=O)[C@H](NC(=N)N)CCOCNC(=O)[C@H](CCCCN)NC(=O)[C@H](CCCCN)NC(=O)Cc2cccc(c2)CNC1=O` yielded a Ki [1] of 439 nM and a Ki [2] of 7.74 nM.

In the case of `N=C(N)N[C@@H]1CCOCNC(=O)[C@H](CCCCN)NC(=O)[C@H](CCCCN)NC(=O)[C@@H](CCc2ccccc2)NC(=O)CCNC(=O)CNC1=O`, the Ki [1] is reported as 1290 nM and the Ki [2] is reported as 10.3 nM.

Molecule `N=C(N)N[C@@H]1CCOCNC(=O)[C@H](CCCCN)NC(=O)[C@H](CCCCN)NC(=O)[C@H]2CCCN2C(=O)CCNC(=O)CNC1=O` has a Ki [1] of 2590 nM and a Ki [2] of 21 nM.

For `N=C(N)N[C@@H]1CCOCNC(=O)[C@H](CCCCN)NC(=O)[C@H](CCCCN)NC(=O)[C@H](Cc2ccccc2)CNC(=O)CNC(=O)CNC1=O` (cyclo(GG[X3]KK[X2])), the Ki [1] was 6490 nM and the Ki [2] was 86 nM.

`C[C@H]1NC(=O)CNC(=O)CNC(=O)[C@H](NC(=N)N)CCOCNC(=O)[C@H](CCCCN)NC(=O)[C@H](CCCCN)NC1=O` showed a Ki [1] of 6970 nM and a Ki [2] of 187 nM.

`CN1CC(=O)NCCC(=O)N[C@@H](CCCCN)C(=O)N[C@@H](CCCCN)C(=O)NCOCC[C@@H](NC(=N)N)C(=O)NCC1=O` (cyclo(G[Sar][βAla]KK[X2])) gave a Ki [1] of 30700 nM and a Ki [2] of 333 nM.

Molecule `N=C(N)N[C@@H]1CCOCNC(=O)[C@H](CCCCN)NC(=O)[C@H](CCCCN)NC(=O)CNC(=O)Cc2cccc(c2)CNC1=O` has a Ki [1] of 1760 nM and a Ki [2] of 41.2 nM.

Molecule `N=C(N)N[C@@H]1CCOCNC(=O)[C@H](CCCCN)NC(=O)[C@H](CCCCN)NC(=O)[C@@H](c2ccccc2)NC(=O)CCNC(=O)CNC1=O` has a Ki [1] of 371 nM, a Ki [2] of 4.84 nM and an inhibition (Trypsin (Sus scrofa)) of 33%. It also gave an inhibition (Prothrombin (Bos taurus)) of 55%.
